The supplement of paper PMC10307832

Columns and labels:
Assay in all cases: relative viability (nuclei count vs DMSO), 5 days (fraction); higher = more cells survive
[1] = compound: CC1CC(=O)N(C2=CN=C(N=C2N1C3CCCC3)NC4=C(C=C(C=C4)C(=O)NC5CCN(CC5)C)OC)C [NPK76-II-72-1] + Cc1cc(Nc2cc(N3CCN(C)CC3)nc(Sc3ccc(NC(=O)C4CC4)cc3)n2)n[nH]1 [Tozasertib] (partner 0.1 µM)
Method in brief: (§1)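 Five library-drug doses in √10 steps were combined with a fixed anchor-drug dose, or a single drug was given alone, by pin tool to lung cancer cell lines in 1536-well plates the day after seeding. Nuclei were stained and counted after 5 days. Relative viability is the nuclei count in treated wells over that in vehicle wells, taken as the median of duplicate plates.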

BI-2536 + Bortezomib = compound: CC[C@@H]1C(=O)N(C)c2cnc(Nc3ccc(C(=O)NC4CCN(C)CC4)cc3OC)nc2N1C1CCCC1 [BI-2536] + CC(C)C[C@H](NC(=O)[C@H](Cc1ccccc1)NC(=O)c1cnccn1)B(O)O [Bortezomib] (partner 0.002 µM)
Method in brief: as §1

BI-2536 + Foretinib = compound: CC[C@@H]1C(=O)N(C)c2cnc(Nc3ccc(C(=O)NC4CCN(C)CC4)cc3OC)nc2N1C1CCCC1 [BI-2536] + COc1cc2c(Oc3ccc(NC(=O)C4(C(=O)Nc5ccc(F)cc5)CC4)cc3F)ccnc2cc1OCCCN1CCOCC1 [Foretinib] (partner 0.25 µM)
Method in brief: as §1

BI-2536 + Linsitinib = compound: CC[C@@H]1C(=O)N(C)c2cnc(Nc3ccc(C(=O)NC4CCN(C)CC4)cc3OC)nc2N1C1CCCC1 [BI-2536] + C[C@]1(O)C[C@@H](c2nc(-c3ccc4ccc(-c5ccccc5)nc4c3)c3c(N)nccn32)C1 [Linsitinib] (partner 1 µM)
Method in brief: as §1

Cell Line	relative viability ([1]; first compound 0.01 µM)	relative viability ([1]; first compound 0.03162 µM)	relative viability ([1]; first compound 0.1 µM)	relative viability ([1]; first compound 0.3162 µM)	relative viability ([1]; first compound 1 µM)	relative viability (BI-2536 + Bortezomib; first compound 0.01 µM)	relative viability (BI-2536 + Bortezomib; first compound 0.03162 µM)	relative viability (BI-2536 + Bortezomib; first compound 0.1 µM)	relative viability (BI-2536 + Bortezomib; first compound 0.3162 µM)	relative viability (BI-2536 + Bortezomib; first compound 1 µM)	relative viability (BI-2536 + Foretinib; first compound 0.01 µM)	relative viability (BI-2536 + Foretinib; first compound 0.03162 µM)	relative viability (BI-2536 + Foretinib; first compound 0.1 µM)	relative viability (BI-2536 + Foretinib; first compound 0.3162 µM)	relative viability (BI-2536 + Foretinib; first compound 1 µM)	relative viability (BI-2536 + Linsitinib; first compound 0.01 µM)	relative viability (BI-2536 + Linsitinib; first compound 0.03162 µM)	relative viability (BI-2536 + Linsitinib; first compound 0.1 µM)	relative viability (BI-2536 + Linsitinib; first compound 0.3162 µM)	relative viability (BI-2536 + Linsitinib; first compound 1 µM)
NCI-H2347	0.405	0.542	0.507	0.589	0.638	0.864	0.963	0.859	0.482	0.476	1.07	0.742	0.933	0.311	0.292	0.947	0.929	0.967	0.617	0.549
NCI-H2228	0.243	0.265	0.341	0.213	0.422	1.13	0.911	0.16	0.198	0.187	1.05	0.583	0.217	0.15	0.156	0.692	1.06	0.63	0.116	0.155
EKVX	0.335	0.339	0.416	0.379	0.474	0.976	1.16	1.03	0.164	0.148	0.702	0.833	0.755	0.237	1.08	1.1	0.96	0.818	0.368	0.169
HOP-62	0.333	0.382	0.397	0.328	0.413	0.603	1.34	0.329	0.114	0.103	1.19	1.05	0.767	0.182	0.146	0.89	1	0.914	0.135	0.142
NCI-H2126	0.8	0.812	0.855	0.783	0.888	1.19	1.1	1.05	0.636	0.227	1.43	1.28	1.05	0.309	0.27	0.751	0.759	0.721	0.46	0.268
SW 1573	0.168	0.208	0.238	0.265	0.21	1.12	1.15	0.967	0.14	0.152	0.878	0.91	0.936	0.196	0.158	0.696	0.683	0.82	0.161	0.132
EPLC-272H	0.278	–	0.281	0.229	0.229	0.939	0.891	–	0.786	0.101	0.715	0.0998	0.0735	0.0644	0.0639	1.12	1.15	–	0.143	0.0967
PC-3 [JPC-3]	0.882	0.861	0.81	0.904	0.93	0.799	0.93	0.834	0.5	0.233	1.06	0.914	0.753	0.17	0.187	0.974	0.899	1	0.756	0.259
NCI-H650	0.738	0.778	0.713	0.661	0.796	0.73	0.563	0.233	0.19	0.126	0.981	0.952	0.678	0.207	0.155	0.964	0.881	0.534	0.165	0.17
NCI-H838	0.27	0.248	0.278	0.274	0.288	0.878	0.824	0.16	0.115	0.111	0.953	1.06	0.636	0.145	0.134	1.05	0.961	0.96	0.136	0.126
COR-L 105	0.351	0.348	0.305	0.407	0.328	0.764	0.761	0.344	0.245	0.237	1.12	0.848	0.913	0.366	0.344	0.829	0.915	0.946	0.277	0.312
NCI-H2405	0.723	0.871	0.762	0.743	0.816	0.829	1.04	0.588	0.632	0.723	1.05	0.731	0.386	0.296	0.354	0.903	0.855	0.745	0.225	0.468
NCI-H661	0.351	0.351	0.35	0.386	0.36	0.959	0.868	0.727	0.191	0.257	1.13	0.889	0.388	0.296	0.309	0.458	0.567	0.709	0.232	0.2
NCI-H1915	0.479	0.455	0.47	0.418	0.482	1.02	0.965	0.613	0.439	0.0752	1.13	0.975	0.618	0.16	0.143	1.12	1.05	1.03	0.625	0.143
CAL-12T	0.33	0.324	0.314	0.25	0.363	0.926	0.823	0.393	0.182	0.192	1.08	0.951	0.503	0.173	0.187	0.913	0.808	0.852	0.165	0.286
LXF-289	0.172	0.214	0.181	0.165	0.2	0.991	0.91	0.485	0.0621	0.0527	1.03	0.826	0.613	0.0393	0.0552	0.988	0.892	0.845	0.069	0.0799
